Test results: patent US20240408093A1, “HETEROBIFUNCTIONAL COMPOUNDS AND THEIR USE IN TREATING DISEASE” (HALDA THERAPEUTICS OPCO, INC., priority 2022, published 2024)

What was measured:
[1] = target: T1, EGFR T790M L858R (Homo sapiens, UniProt P00533, L858R/T790M); experiment: Release of effector protein ligand from heterobifunctional compounds, EGFR T790M L858R; assay type: biochemical; settings: detected A1-3
T1 construct: EGFR T790M L858R (amino acids 696-1022)
Description: Exemplary heterobifunctional compounds were evaluated for the ability to release an effector protein ligand in the presence of KRAS G12C, BTK, or EGFR T790M L858R target proteins.
Samples for mass spectrometry for KRAS G12C, BTK, and EGFR T790M L858R were prepared as described above for the intact mass spectrometry target engagement experiment, respectively, except rather than flash-freezing, 20 μL of sample was quenched with 50 μL of 100% acetonitrile. As well, a buffer-only control was used to detect latent release of effector protein ligand analyte. Internal standard (IS) solution consisted of 200 ng/mL propranolol and 50 ng/mL diclofenac in methanol:water 1:1 (v/v). A 4-point calibration curve (calibration standard (CS)) consisting of each analyte was made at final concentrations of 3 nM, 30 nM, 300 nM, and 3000 nM. Unknown samples were diluted such that the unknown analyte concentration was in the linear range of the calibration curve.
Samples for all proteins were prepared and analyzed from the following:
Samples were further analyzed with AB Sciex Triple Quad 5500 system coupled with Shimadzu Prominence HPLC.

[2] = target: T2, GSPT1 (Homo sapiens, UniProt P15170+Q96SW2); experiment: GSPT1 HiBiT degradation assay; assay type: cell-based; settings: HEK293 LgBiT GSPT1 HiBiT cells, 6 hours
T2 construct: host or cells: HEK293 LgBiT / GSPT1 HiBiT CRISPR knock-in
T2 sequence (P15170 whole entry): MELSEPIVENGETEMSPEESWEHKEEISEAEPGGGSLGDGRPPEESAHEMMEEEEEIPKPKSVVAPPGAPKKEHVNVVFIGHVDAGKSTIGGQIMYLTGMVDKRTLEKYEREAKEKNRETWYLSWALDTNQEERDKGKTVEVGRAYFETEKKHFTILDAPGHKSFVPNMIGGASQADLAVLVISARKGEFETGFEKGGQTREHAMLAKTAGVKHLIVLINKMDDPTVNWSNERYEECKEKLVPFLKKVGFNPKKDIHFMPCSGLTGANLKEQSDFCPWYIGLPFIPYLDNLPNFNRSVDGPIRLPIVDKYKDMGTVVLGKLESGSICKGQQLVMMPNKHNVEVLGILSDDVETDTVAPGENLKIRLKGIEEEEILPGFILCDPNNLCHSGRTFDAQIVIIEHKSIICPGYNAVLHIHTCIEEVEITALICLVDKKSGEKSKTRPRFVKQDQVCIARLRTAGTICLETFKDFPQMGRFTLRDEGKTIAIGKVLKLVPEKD
T2 sequence (Q96SW2 whole entry): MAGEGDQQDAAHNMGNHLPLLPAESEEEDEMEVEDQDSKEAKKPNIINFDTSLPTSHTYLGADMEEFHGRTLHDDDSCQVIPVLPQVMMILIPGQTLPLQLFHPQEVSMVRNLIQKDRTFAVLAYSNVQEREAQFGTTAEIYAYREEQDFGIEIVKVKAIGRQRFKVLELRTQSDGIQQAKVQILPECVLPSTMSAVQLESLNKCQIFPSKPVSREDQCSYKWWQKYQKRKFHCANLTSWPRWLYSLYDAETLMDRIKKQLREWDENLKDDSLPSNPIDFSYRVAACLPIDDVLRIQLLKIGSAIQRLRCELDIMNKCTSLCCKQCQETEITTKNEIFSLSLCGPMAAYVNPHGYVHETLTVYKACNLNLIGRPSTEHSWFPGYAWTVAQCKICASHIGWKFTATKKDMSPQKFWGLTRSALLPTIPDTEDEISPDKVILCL
T2 sequence (Q16531 whole entry partner): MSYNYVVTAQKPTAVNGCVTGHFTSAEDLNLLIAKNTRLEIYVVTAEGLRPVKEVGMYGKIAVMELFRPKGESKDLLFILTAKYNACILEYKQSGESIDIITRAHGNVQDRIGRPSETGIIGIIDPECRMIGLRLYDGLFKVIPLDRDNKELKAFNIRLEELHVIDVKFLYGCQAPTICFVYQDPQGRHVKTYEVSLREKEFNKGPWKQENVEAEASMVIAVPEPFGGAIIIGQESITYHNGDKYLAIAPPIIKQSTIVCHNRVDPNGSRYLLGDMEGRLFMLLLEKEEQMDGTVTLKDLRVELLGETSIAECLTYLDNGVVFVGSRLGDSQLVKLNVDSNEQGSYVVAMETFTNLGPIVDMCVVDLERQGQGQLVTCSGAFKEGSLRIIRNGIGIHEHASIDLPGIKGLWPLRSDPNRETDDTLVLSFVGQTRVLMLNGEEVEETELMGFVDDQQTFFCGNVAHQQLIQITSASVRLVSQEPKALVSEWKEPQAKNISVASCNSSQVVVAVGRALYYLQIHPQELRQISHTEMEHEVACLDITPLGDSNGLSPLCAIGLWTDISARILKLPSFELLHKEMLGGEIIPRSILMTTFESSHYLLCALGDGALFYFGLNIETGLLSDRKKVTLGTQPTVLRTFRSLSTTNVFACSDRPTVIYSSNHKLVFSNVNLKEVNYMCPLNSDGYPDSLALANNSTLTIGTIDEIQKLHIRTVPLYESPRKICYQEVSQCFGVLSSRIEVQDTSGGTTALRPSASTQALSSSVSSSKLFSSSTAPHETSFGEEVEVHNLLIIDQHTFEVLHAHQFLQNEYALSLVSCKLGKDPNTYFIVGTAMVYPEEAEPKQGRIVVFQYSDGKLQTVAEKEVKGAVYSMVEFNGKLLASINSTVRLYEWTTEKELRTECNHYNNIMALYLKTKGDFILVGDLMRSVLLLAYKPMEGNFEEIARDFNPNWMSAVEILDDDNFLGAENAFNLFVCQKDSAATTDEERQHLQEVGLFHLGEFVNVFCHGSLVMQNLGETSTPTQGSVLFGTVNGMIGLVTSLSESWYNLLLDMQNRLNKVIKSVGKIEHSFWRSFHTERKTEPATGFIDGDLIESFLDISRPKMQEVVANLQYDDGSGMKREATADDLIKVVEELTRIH
Procedure, shortened: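 HEK293 CRISPR knock-in cells expressing LgBiT and GSPT1-HiBiT were seeded at 1000 cells/well and, after 18-24 h, treated with titrated compound plus endurazine (0.5× final) at 37 °C. Luminescence read after 6 h; loss of signal reflects GSPT1 degradation, giving DC50.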

[3] = target: T3, full-length BTK (amino acids 1-659) (Homo sapiens, UniProt Q06187); experiment: KdELECT binding assay, BTK
T3 construct: full-length BTK (amino acids 1-659); host or cells: mammalian cells (HEK-293)
T3 sequence (Q06187 whole entry, the tested form may be a part): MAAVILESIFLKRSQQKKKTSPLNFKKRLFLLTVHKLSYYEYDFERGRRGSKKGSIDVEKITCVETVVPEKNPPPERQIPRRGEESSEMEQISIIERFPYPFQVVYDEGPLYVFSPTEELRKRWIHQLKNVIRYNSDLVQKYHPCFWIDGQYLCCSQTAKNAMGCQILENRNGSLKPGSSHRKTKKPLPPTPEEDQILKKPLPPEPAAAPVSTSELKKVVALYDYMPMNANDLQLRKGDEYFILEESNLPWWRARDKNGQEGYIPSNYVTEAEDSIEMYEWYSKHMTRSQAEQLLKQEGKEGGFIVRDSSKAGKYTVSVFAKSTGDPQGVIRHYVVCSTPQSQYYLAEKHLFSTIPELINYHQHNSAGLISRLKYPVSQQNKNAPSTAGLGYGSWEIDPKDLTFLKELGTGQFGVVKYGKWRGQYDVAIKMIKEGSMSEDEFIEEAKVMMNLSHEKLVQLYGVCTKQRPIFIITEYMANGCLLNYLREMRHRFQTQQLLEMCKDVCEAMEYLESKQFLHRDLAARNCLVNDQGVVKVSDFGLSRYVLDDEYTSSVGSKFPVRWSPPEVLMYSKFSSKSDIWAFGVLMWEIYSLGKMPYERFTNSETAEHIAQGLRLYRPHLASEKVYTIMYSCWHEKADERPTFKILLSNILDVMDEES
Description: Exemplary compounds were tested for ability to bind to full-length BTK (amino acids 1-659; Accession Number NP_000052.1) expressed from mammalian cells. Compounds were tested using the KdELECT assay.
(§1) Kinase-tagged T7 phage strains were prepared in an E. coli host derived from the BL21 strain. E. coli were grown to log-phase and infected with T7 phage and incubated with shaking at 32° C. until lysis. The lysates were centrifuged and filtered to remove cell debris. The remaining kinases were produced in HEK-293 cells and subsequently tagged with DNA for qPCR detection. Streptavidin-coated magnetic beads were treated with biotinylated small molecule ligands for 30 minutes at room temperature to generate affinity resins for kinase assays. The liganded beads were blocked with excess biotin and washed with blocking buffer (SeaBlock (Pierce), 1% BSA, 0.05% Tween 20, 1 mM DTT) to remove unbound ligand and to reduce non-specific binding. Binding reactions were assembled by combining kinases, liganded affinity beads, and test compounds in 1× binding buffer (20% SeaBlock, 0.17× PBS, 0.05% Tween 20, 6 mM DTT). Test compounds were prepared as 111× stocks in 100% DMSO. Kd values were determined using an 11-point 3-fold compound dilution series with three DMSO control points. All compounds for Kd measurements are distributed by acoustic transfer (non-contact dispensing) in 100% DMSO. The compounds were then diluted directly into the assays such that the final concentration of DMSO was 0.9%. All reactions performed in polypropylene 384-well plate. Each was a final volume of 0.02 mL. The assay plates were incubated at room temperature with shaking for 1 hour and the affinity beads were washed with wash buffer (1× PBS, 0.05% Tween 20). The beads were then re-suspended in elution buffer (1× PBS, 0.05% Tween 20, 0.5 μM nonbiotinylated affinity ligand) and incubated at room temperature with shaking for 30 minutes. The kinase concentration in the eluates was measured by qPCR.

[4] = system: HEK293 cells (ATCC CRL-1573); experiment: Cellular growth inhibition assay, HEK293 cells (Example 16); assay type: cell-based; settings: Homo sapiens, 72 hours, CellTiter-Glo 2.0
[5] = system: HeLa cells (ATCC CCL-2); experiment: Cellular growth inhibition assay, HeLa cells (Example 16); assay type: cell-based; settings: Homo sapiens, 72 hours, CellTiter-Glo 2.0
[6] = target: T4, EGFR T790M/L858R kinase domain (Homo sapiens, UniProt P00533, L858R/T790M); experiment: EGFR cellular target engagement assay (HEK293 cells stable for EGFR T790M, L858R); assay type: cell-based; settings: 6 hours, read-out: TE50 (the source's name)
T4 construct: EGFR (amino acids 696-1022, T790M, L858R); expressed in transfected cells; host or cells: HEK293, lentiviral transduction, puromycin selection
Description: HEK293 cells were cultured in DMEM (Gibco 11995), supplemented with 10% Heat-inactivated FBS (Gibco A38400-01) and 1% Penicillin/Streptomycin (Gibco 15140-122) at 37° C. with 5% CO2 in a humidified tissue culture incubator. Cells were made stable for EGFR (amino acids 696-1022, T790M, L858R) by lentiviral transduction, followed by selection with 1 μg/ml Puromycin Dihydrochloride (Thermo A1113803). Cells were seeded at 30,000 cells/ml in 0.1 ml of complete media in Poly-D-lysine-treated 96-well plates and incubated overnight. Cells were treated with increasing concentrations of compound and let incubate at 37C and 5% CO2 for 6 hours, after which media was aspirated, washed with 1×PBS and cells were lysed in RIPA Lysis and Extraction Buffer (Thermo 89901) supplemented with 5 mM MgCl2, Protease and Phosphatase inhibitor cocktail (Thermo 1861281), and Universal Nuclease (Thermo 88700). Plates with RIPA were shaken at 4° C. at 600 rpm for 15 min. After shaking samples, they were collected and spun down at 21,000 g for 15 min at 4° C. Following centrifugation, […] of lysate was added to Laemmli Sample Buffer (Bio-Rad 1610747) plus 10% beta-mercaptoethanol, boiled for 15 minutes at 65° C. and loaded onto 4-20% Mini-PROTEAN TGX™ Precast Protein Gels (Bio-Rad). Protein was transferred to a nitrocellulose membrane (Thermo LC2000) using the iBlot 2 Dry Blotting System (Thermo). After transfer, membranes were washed in 1× TBST (Bioland Scientific LLC TBST0103) 3× for 5 min. Following the wash, blocking buffer (Rockland MB-070) was added for 1 hour at room temperature. Primary antibodies against EGFR (Cell Signaling Technology 3197) and actin (Cell Signaling Technology 3700S) were added overnight at 4° C. Membranes were then washed again 3× for 5 min in 1× TBST. Secondary antibodies (LI-COR 926-68072 and 926-68073) were added and shaken for 1 hr at room temperature. Membranes were then washed 3× for 5 min in 1×TBST and developed. Membranes were placed on an Odyssey imager (LI-COR).

[7] = target: T5, CCNK (Homo sapiens, UniProt O75909+Q16531+Q9NYV4); experiment: CCNK HiBiT degradation assay; assay type: cell-based; settings: HEK293 LgBiT/CCNK HiBiT cells, 6 hours
T5 construct: expressed in transfected cells; host or cells: HEK293 LgBiT cells (Promega), lentiviral transduction, puromycin selection
T5 sequence (O75909 whole entry, species assumed): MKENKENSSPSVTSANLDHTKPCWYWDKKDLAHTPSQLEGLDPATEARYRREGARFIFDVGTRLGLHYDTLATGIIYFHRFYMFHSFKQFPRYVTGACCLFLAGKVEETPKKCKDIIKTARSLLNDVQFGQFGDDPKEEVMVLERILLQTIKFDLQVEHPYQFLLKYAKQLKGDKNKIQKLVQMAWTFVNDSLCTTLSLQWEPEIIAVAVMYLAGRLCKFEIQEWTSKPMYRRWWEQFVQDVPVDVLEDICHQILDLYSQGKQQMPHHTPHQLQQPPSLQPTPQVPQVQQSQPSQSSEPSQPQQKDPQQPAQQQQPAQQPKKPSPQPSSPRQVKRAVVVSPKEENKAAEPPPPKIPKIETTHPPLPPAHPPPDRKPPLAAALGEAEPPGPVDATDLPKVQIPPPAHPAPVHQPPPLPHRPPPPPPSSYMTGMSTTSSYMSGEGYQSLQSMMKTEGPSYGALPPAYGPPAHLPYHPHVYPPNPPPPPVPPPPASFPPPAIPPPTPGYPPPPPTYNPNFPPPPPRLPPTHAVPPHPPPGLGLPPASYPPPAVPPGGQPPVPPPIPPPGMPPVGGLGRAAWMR
T5 sequence (Q9NYV4 whole entry, species assumed): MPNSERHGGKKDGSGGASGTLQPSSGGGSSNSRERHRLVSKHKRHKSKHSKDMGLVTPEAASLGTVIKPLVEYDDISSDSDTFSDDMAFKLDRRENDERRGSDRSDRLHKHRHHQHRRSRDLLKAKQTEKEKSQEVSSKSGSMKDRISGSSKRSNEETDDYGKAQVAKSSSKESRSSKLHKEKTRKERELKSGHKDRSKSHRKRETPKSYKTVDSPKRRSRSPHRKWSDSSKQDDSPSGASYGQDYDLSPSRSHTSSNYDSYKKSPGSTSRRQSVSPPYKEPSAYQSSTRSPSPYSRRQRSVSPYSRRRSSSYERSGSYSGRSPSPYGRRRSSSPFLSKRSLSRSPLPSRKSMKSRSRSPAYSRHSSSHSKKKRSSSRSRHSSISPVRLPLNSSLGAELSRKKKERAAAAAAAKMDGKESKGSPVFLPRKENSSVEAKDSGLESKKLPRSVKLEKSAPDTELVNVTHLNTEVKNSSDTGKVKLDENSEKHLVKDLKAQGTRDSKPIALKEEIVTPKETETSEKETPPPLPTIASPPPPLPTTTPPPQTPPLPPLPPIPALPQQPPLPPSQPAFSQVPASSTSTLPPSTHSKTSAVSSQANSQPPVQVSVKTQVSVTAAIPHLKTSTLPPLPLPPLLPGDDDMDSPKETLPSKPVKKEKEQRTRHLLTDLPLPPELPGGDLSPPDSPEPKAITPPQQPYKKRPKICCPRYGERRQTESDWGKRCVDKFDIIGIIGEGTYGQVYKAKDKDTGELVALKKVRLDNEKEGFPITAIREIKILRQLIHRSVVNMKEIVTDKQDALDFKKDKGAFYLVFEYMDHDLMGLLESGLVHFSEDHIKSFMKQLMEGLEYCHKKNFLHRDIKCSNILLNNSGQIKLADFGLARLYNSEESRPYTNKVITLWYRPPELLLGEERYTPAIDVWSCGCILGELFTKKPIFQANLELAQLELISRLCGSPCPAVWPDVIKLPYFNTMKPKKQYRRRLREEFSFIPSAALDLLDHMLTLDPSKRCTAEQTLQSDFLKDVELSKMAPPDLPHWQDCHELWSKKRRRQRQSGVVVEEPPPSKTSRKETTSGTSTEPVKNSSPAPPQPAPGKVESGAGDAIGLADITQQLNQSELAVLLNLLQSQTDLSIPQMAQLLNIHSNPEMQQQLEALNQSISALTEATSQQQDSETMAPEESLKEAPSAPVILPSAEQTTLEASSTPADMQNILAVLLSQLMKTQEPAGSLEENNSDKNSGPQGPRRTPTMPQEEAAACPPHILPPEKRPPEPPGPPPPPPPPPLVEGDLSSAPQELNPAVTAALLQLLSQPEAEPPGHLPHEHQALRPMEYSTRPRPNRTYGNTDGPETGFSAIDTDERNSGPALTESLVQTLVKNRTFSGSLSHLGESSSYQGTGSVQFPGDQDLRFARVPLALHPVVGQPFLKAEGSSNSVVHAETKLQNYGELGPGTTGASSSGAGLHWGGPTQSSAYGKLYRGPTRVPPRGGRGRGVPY
T5 sequence (Q16531 whole entry, species assumed): as the sequence (Q16531 whole entry partner) above
Description: HEK293 LgBiT cells (Promega) were cultured in DMEM (Gibco 11995), supplemented with 10% Heat-inactivated FBS (Gibco A38400-01) and 1% Penicillin/Streptomycin (Gibco 15140-122) and 200 μg/ml Hygromycin B (Gibco 10-687-010) at 37° C. with 5% CO2 in a humidified tissue culture incubator. Cells were made stable for CCNK fused to a C-terminal HiBiT peptide by lentiviral transduction, followed by selection with 1 μg/ml Puromycin Dihydrochloride (Thermo A1113803). HEK293 LgBiT/CCNK HiBiT cells were seeded at 3000 cells/well in 384-well, tissue culture-treated white plates (Perkin Elmer 6007680) in 25 μL media lacking selection for 18-24 hours. Plates were spun at 300 g for 30 seconds and stored in the incubator overnight. After 24 hours, compounds were titrated in DMSO and added to media supplemented with Endurazine Substrate (Promega N2570). A 25 ul aliquot of 2× compound/endurazine in media were then added to the 384-well microplate with seeded cells. (Endurazine was used at a final concentration of 0.5×). The plate was spun at 300 g for 30 seconds and stored in the incubator. After 6 hours the plate was read on Envision MultiMode Plate Reader 2105 (Perkin Elmer) to measure luminescence signal. Data were plotted in Prism (Graphpad) and the concentration of compound at which 50% CCNK degradation occurs (DC50) was calculated.

[8] = target: T6, EGFR T790M, L858R (amino acids 669-1011) (Homo sapiens, UniProt P00533, L858R/T790M); experiment: KdELECT binding assay, EGFR T790M, L858R
T6 construct: purchased Eurofins Discovery (KdELECT); host or cells: mammalian cells (HEK-293)
Description: (§2) Exemplary compounds were tested for ability to bind to EGFR WT (amino acids 669-1011, Accession Number NP_005219.2) or EGFR T790M, L858R (amino acids 669-1011 Accession Number NP_005219.2) expressed from bacteria or mammalian cells, respectively. Compounds were tested using the KdELECT assay at Eurofins Discovery.
as §1, with “in 1x” for “in 1×”

[9] = target: T7, EGFR WT (amino acids 669-1011) (Homo sapiens, UniProt P00533); experiment: KdELECT binding assay, EGFR WT
T7 construct: purchased Eurofins Discovery (KdELECT); host or cells: bacteria (E. coli BL21-derived, T7 phage)
Description: as §2
as §1, with “in 1x” for “in 1×”

SMILES	DC50 [2]	Kd [3]	GI50 [4]	GI50 [5]	also measured
C=C(Cn1cc(CNc2cc(N3CCCC[C@H]3CCO)nc3c(CC)cnn23)ccc1=O)C(=O)N[C@@H]1CN(c2nc(Nc3cn(C)nc3OC)c3ncn(C)c3n2)C[C@H]1F [Compound A1-8]					Concentration of Effector Protein Ligand ([1]; Buffer + Protein (EGFR T790M L858R), Time 0 h): 0.889 µM; Concentration of Effector Protein Ligand ([1]; Buffer + Protein (EGFR T790M L858R), Time 2 h): 5.18 µM; Concentration of Effector Protein Ligand ([1]; Buffer + Protein (EGFR T790M L858R), Time 8 h): 6.91 µM; Concentration of Effector Protein Ligand ([1]; Buffer + Protein (EGFR T790M L858R), Time 24 h): 9.11 µM; Concentration of Effector Protein Ligand ([1]; Buffer, Time 0 h): 0.894 µM; Concentration of Effector Protein Ligand ([1]; Buffer, Time 2 h): 4.06 µM; Concentration of Effector Protein Ligand ([1]; Buffer, Time 8 h): 7.24 µM; Concentration of Effector Protein Ligand ([1]; Buffer, Time 24 h): 8.26 µM
C=C(CN1C(=O)CCC(N2Cc3cc(CNC(=O)Nc4ccc(C)c(Cl)c4)ccc3C2=O)C1=O)C(=O)N1CCC[C@@H](n2nc(-c3ccc(Oc4ccccc4)cc3)c3c(N)ncnc32)C1 (stereo partly drawn) [Compound I-3, 1-[[2-[1-[2-[(3R)-3-[4-amino-3-(4-phenoxyphenyl)pyrazolo[3,4-d]pyrimidin-1-yl]piperidine-1-carbonyl]allyl]-2,6-dioxo-3-piperidyl]-1-oxo-isoindolin-5-yl]methyl]-3-(3-chloro-4-methyl-phenyl)urea]	> 2500 nM	500 to 2500 nM			
C=C(CN(Cc1ccc2c(c1)CN(C1CCC(=O)NC1=O)C2=O)C(=O)Nc1ccc(C)c(Cl)c1)C(=O)N1CCC[C@@H](n2nc(-c3ccc(Oc4ccccc4)cc3)c3c(N)ncnc32)C1 (stereo partly drawn) [Compound I-31]	> 2500 nM	500 to 2500 nM	> 10000 nM	> 10000 nM	
C=C(CN(C(=O)NCc1ccc2c(c1)CN(C1CCC(=O)NC1=O)C2=O)c1ccc(C(F)(F)F)c(Cl)c1)C(=O)N1CCC[C@@H](n2nc(-c3ccc(Oc4ccccc4)cc3)c3c(N)ncnc32)C1 (stereo partly drawn) [Compound I-38]	> 2500 nM	500 to 2500 nM	> 10000 nM	> 10000 nM	
C=C(COc1ccc(Cl)cc1NC(=O)NCc1ccc2c(c1)CN(C1CCC(=O)NC1=O)C2=O)C(=O)N1CCC[C@@H](n2nc(-c3ccc(Oc4ccccc4)cc3)c3c(N)ncnc32)C1 (stereo partly drawn) [I-32]		50 to 500 nM	500 to 1500 nM	500 to 1500 nM	
C=C(COC(=O)N1CCN(c2nc(NCc3nc4cc(C)ccc4[nH]3)n3ncc(Br)c3n2)CC1)C(=O)N[C@@H]1CN(c2nc(Nc3cn(C)nc3OC)c3ncn(C)c3n2)C[C@H]1F [II-184]			< 500 nM	< 500 nM	EC50 [6]: 250 to 5000 nM; DC50 [7]: < 250 nM; Kd [8]: 50 to 500 nM; Kd [9]: 50 to 500 nM
